# Laboratory results as given in ChEMBL document CHEMBL5230155, “Recent contributions of quinolines to antimalarial and anticancer drug discovery research” (Eur J Med Chem, 2021).
# How the values were obtained:
# [1] = system: Plasmodium falciparum; experiment: microbe, parasite or virus in culture
# Description: Antimalarial activity against Plasmodium falciparum
# [2] = system: MCF7; experiment: Antiproliferative activity against human MCF7 cells; assay type: functional, cell-based; details: Homo sapiens, MCF7
# [3] = molecular target: Hepatocyte growth factor receptor (Homo sapiens, UniProt P08581); experiment: Inhibition of c-Met (unknown origin)
# [4] = system: Plasmodium falciparum; experiment: Antimalarial activity against CQ-resistant Plasmodium falciparum W2; assay type: functional, organism-based
# [5] = system: Plasmodium falciparum; experiment: Antimalarial activity against CQ-sensitive Plasmodium falciparum D6; assay type: functional, organism-based
# [6] = Binding affinity to human nRNP
# [7] = molecular target: Cathepsin B (Homo sapiens) (UniProt P07858); experiment: Inhibition of human cathepsin B exopeptidase activity at 50 uM relative to control
# [8] = molecular target: Lysine-specific demethylase 6B (Homo sapiens) (UniProt O15054); experiment: Inhibition of JMJD3 (unknown origin) at 25 uM relative to control
# [9] = system: Plasmodium falciparum; experiment: microbe, parasite or virus in culture; details: NF54
# Description: Antimalarial activity against CQ-sensitive Plasmodium falciparum NF54
# [10] = system: HepG2; experiment: Cytotoxicity against human HepG2 cells; assay type: functional, cell-based; details: Homo sapiens, HepG2
# [11] = system: HCT-116; experiment: Cytotoxicity against human HCT-116 cells; assay type: functional, cell-based
# [12] = system: Plasmodium falciparum; experiment: Antimalarial activity against CQ-resistant Plasmodium falciparum K1; assay type: functional, organism-based
# [13] = system: Plasmodium falciparum; experiment: Antimalarial activity against CQ-sensitive Plasmodium falciparum 3D7; assay type: functional, organism-based
# Sequence of Lysine-specific demethylase 6B (Homo sapiens) (O15054 whole entry): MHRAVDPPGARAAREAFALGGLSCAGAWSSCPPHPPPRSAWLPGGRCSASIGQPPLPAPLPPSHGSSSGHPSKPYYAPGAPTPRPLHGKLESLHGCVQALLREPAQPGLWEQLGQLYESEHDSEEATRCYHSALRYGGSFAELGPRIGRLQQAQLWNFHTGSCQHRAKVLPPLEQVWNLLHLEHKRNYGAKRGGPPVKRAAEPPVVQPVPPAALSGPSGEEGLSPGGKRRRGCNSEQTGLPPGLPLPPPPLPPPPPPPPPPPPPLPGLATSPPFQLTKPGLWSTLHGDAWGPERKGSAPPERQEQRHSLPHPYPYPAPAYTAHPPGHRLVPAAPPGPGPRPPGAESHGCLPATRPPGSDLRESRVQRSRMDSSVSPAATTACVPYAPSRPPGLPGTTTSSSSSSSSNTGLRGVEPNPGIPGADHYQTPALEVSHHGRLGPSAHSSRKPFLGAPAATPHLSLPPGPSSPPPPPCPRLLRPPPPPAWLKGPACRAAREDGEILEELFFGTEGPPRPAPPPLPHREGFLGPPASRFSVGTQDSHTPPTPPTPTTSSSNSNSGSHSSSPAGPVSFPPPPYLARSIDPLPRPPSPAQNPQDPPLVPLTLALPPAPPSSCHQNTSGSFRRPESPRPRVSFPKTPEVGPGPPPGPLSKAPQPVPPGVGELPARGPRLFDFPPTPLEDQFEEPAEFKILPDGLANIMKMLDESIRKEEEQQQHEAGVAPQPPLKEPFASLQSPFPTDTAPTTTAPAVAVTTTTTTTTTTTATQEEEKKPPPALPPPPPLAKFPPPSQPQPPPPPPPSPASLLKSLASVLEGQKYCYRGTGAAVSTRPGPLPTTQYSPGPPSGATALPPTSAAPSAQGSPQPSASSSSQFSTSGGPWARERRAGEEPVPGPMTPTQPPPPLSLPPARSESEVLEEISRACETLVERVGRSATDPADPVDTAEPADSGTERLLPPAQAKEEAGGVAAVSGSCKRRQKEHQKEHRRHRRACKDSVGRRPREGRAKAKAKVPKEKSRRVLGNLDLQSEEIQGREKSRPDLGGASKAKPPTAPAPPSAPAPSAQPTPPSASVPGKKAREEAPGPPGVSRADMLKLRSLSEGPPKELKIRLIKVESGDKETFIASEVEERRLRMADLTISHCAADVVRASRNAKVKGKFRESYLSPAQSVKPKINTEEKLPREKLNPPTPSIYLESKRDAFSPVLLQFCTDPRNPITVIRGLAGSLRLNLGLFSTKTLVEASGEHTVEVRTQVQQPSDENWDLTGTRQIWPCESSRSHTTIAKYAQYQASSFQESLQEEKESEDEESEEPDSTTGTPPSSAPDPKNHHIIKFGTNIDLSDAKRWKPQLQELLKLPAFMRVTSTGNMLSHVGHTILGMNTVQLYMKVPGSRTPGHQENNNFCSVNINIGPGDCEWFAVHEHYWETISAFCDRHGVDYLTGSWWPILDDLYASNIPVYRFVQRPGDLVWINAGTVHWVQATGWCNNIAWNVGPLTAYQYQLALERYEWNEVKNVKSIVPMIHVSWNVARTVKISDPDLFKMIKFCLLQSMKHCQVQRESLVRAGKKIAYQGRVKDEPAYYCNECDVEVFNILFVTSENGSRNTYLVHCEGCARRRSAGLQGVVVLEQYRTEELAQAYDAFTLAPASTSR
# Sequence of Hepatocyte growth factor receptor (P08581 whole entry): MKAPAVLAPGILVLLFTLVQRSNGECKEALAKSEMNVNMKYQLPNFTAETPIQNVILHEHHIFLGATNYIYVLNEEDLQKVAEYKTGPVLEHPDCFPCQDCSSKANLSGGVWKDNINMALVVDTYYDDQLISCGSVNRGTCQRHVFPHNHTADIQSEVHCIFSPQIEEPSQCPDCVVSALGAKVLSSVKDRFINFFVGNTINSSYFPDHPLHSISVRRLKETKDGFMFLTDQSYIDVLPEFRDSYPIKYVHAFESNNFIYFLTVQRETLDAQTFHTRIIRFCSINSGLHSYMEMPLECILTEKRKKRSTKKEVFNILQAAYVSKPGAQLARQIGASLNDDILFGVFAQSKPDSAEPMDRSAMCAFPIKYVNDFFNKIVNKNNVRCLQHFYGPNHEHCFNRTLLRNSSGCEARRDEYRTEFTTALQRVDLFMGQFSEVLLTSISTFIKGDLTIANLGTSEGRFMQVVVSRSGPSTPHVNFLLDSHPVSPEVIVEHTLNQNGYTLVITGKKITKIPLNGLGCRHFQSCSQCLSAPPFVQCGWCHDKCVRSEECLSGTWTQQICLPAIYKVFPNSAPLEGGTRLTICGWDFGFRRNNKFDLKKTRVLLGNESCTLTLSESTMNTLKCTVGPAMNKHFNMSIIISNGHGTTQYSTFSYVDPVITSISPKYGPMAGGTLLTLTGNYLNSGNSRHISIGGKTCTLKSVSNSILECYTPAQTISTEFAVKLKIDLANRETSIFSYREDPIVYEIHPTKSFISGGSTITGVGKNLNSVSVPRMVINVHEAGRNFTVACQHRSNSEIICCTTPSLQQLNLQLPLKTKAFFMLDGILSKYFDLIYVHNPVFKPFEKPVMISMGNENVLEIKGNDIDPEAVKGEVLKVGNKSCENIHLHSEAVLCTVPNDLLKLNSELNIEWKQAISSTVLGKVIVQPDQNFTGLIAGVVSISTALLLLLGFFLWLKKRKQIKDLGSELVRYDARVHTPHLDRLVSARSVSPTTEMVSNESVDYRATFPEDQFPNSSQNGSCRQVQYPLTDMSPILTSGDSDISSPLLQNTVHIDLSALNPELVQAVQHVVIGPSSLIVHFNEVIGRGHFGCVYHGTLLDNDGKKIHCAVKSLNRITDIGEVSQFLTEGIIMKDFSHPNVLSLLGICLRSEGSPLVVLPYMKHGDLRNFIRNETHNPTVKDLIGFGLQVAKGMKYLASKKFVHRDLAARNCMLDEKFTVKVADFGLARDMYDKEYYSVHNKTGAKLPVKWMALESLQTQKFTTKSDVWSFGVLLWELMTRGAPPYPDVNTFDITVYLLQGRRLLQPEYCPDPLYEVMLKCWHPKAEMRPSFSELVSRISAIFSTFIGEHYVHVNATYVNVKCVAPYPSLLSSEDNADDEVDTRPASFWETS
smiles,measurement,setting,value
O=C(NNC(=S)Nc1c(F)cccc1F)c1cc(-c2ccccc2Br)nc2c(Cl)cc(C(F)(F)F)cc12,IC50,[1],0.1 µg/mL
Cc1cc(C)c(S(=O)(=O)Oc2ccc(Cl)c3cccnc23)c(C)c1,IC50,[2],1380 nM
COc1cc2nccc(Oc3ccc(NC(=O)C4(C(=O)Nc5ccc(F)cc5)CC4)cc3)c2cc1O,IC50,[3],19 nM
N=C(N=C(N)N)SCCCCNc1ccnc2cc(Cl)ccc12,IC50,[4],430 nM
same,IC50,[5],610 nM
Cn1cc(-c2ccc3nnc(C(F)(F)c4ccc5ncccc5c4)n3n2)cn1 [JNJ-38877605],IC50,[3],1.7 nM
O=C(/C=C/c1cc(N2CCOCC2)c2cc(O)ccc2n1)c1ccc(Cl)cc1,Kd,[6],20100 nM
O=C1c2ccc(N3CCOCC3)cc2C(=O)N1CCCCCCNc1ccnc2cc(Cl)ccc12,IC50,[4],6 nM
COc1cc2nccc(Oc3ccc(NC(=O)C4(C(=O)Nc5ccc(F)cc5)CC4)cc3)c2cc1OC(=O)c1ccc([N+](=O)[O-])cc1,IC50,[3],19 nM
COc1ccc(C(=O)/C=C/c2cc(N3CCOCC3)c3cc(F)ccc3n2)cc1,Kd,[6],4600 nM
COCCCNC(=O)c1cc([N+](=O)[O-])c2cccnc2c1O,inhibition,[7],19.4%
COc1cc(-c2cnc3c(C(=O)O)ccc(C(=O)O)c3c2)c(OC)nn1,inhibition,[8],0%
C=C[C@H]1CN2CC[C@H]1C[C@H]2[C@H](O)c1ccnc2ccc(OC)cc12 [QUININE],IC50,[9],22 nM
same,IC50,[1],0.26 µg/mL
COc1ccc(Nc2ccnc3cc(-c4ccc(S(=O)(=O)N5CCN(C)CC5)cc4)ccc23)cc1Cl,EC50,[5],12 nM
Cc1ccc2nc(/C=C/c3ccc(N(C)C)cc3)cc(C(=O)O)c2c1,IC50,[10],7.7 µg/mL
same,IC50,[11],7.7 µg/mL
O=C(NNC(=S)Nc1ccc([N+](=O)[O-])cc1)c1cc(-c2ccc(F)cc2F)nc2ccc(F)cc12,IC50,[1],0.1 µg/mL
Cc1c(Cl)ccc2cc(/C=C/C(=O)c3ccc(Br)s3)c(Cl)nc12,IC50,[4],< 50 nM
same,IC50,[5],< 50 nM
Cc1cc(S(=O)(=O)c2ccc(C#N)cc2)c2ccccc2n1,IC50,[2],1380 nM
COc1ccccc1NC(=S)NNC(=O)c1cc(-c2ccccc2Cl)nc2ccccc12,IC50,[1],< 0.3 µg/mL
C#Cc1ccc(-c2cn(CCNc3ccnc4cc(Cl)ccc34)nn2)cc1,IC50,[12],160 nM
same,IC50,[9],140 nM
O=C(NCc1ccccc1)c1cc([N+](=O)[O-])c2cccnc2c1O,inhibition,[7],19.4%
Cc1c(Cl)ccc2cc(/C=C/C(=O)c3csc(Cl)c3)c(Cl)nc12,IC50,[4],< 50 nM
same,IC50,[5],< 50 nM
C#Cc1ccc(-c2cn(CCNc3ccnc4cc(Cl)ccc34)nn2)cc1F,IC50,[12],160 nM
same,IC50,[9],140 nM
OCc1cc(-c2cn(-c3ccc(Cl)cc3Cl)nc2-c2ccccc2)nc2ccccc12,IC50,[1],0.036 µg/mL
CCN(CC)c1ccc2c(c1)C(=O)N(CCC(=O)NCCNc1ccnc3cc(Cl)ccc13)C2=O,IC50,[4],97 nM
OCCNCCNc1ccnc2cc(Cl)ccc12,IC50,[13],18.9 nM
same,IC50,[4],305 nM
O=C(NNC(=S)NC1CCCCC1)c1cc(-c2ccccc2Cl)nc2ccccc12,IC50,[1],< 0.3 µg/mL
Cc1nc2ccccc2c(C)c1C(=O)NNC(=S)Nc1ccccc1,IC50,[1],0.02 µg/mL
O=C1c2ccc(N3CCN(CCO)CC3)cc2C(=O)N1CCCCNc1ccnc2cc(Cl)ccc12,IC50,[4],6 nM
O=C(/C=C/c1cc(N2CCOCC2)c2cc([N+](=O)[O-])ccc2n1)c1ccc(O)cc1,Kd,[6],4600 nM
CC(C)NC(=O)c1cc([N+](=O)[O-])c2cccnc2c1O,inhibition,[7],19.4%
FC(F)(F)c1ccc(-c2cncn2CCNc2ccnc3cc(Cl)ccc23)cc1,IC50,[13],79 nM
same,IC50,[12],290 nM
O=C(/C=C/c1cc(N2CCOCC2)c2ccccc2n1)c1ccc(O)cc1,Kd,[6],4600 nM
O=C1c2ccc(N3CCN(CCO)CC3)cc2C(=O)N1CCCNc1ccnc2cc(Cl)ccc12,IC50,[4],6 nM
O=C(O)c1ccc(-c2cnc3c(C(=O)O)ccc(C(=O)O)c3c2)s1,inhibition,[8],0%
NS(=O)(=O)c1ccc(-c2cnc3c(C(=O)O)ccc(C(=O)O)c3c2)cc1,inhibition,[8],0%
COc1cc2nccc(Oc3ccc(NC(=O)C4(C(=O)Nc5c(F)cc(F)cc5F)CC4)cc3)c2cc1Oc1ccc(N)cn1,IC50,[3],19 nM
O=C(/C=C/C(=O)Nc1cccc(F)c1)NCCCCNc1cc(C(F)(F)F)nc2c(C(F)(F)F)cccc12,IC50,[13],2900 nM
COc1cc(-c2cnc3c(C(=O)O)ccc(C(=O)O)c3c2)ccc1F,inhibition,[8],0%
CCOC(=O)C(C#N)C(=O)c1cc(/C=C/c2ccc(N(C)C)cc2)nc2ccc(Br)cc12 (stereo unspecified),IC50,[10],7.7 µg/mL
same,IC50,[11],7.7 µg/mL
O=C(NNC(=S)Nc1ccc([N+](=O)[O-])cc1)c1cc(-c2ccccc2Cl)nc2ccccc12,IC50,[1],< 0.3 µg/mL
O=C(NNC(=S)Nc1cccc(Cl)c1)c1cc(-c2ccccc2Cl)nc2ccccc12,IC50,[1],< 0.3 µg/mL
COc1cccc(NC(=S)NNC(=O)c2cc(-c3ccc(C(F)(F)F)cc3)nc3ccc(F)cc23)c1,IC50,[1],0.1 µg/mL
CN(C)c1ccc(/C=C/c2cc(C(=O)O)c3cc(Br)ccc3n2)cc1,IC50,[10],7.7 µg/mL
same,IC50,[11],7.7 µg/mL
CC(C)(C)c1cncn1CCNc1ccnc2cc(Cl)ccc12,IC50,[13],79 nM
same,IC50,[12],290 nM
